Data reported in US20260070945A1, “MACROCYCLIC IMMUNOMODULATORS” (Bristol-Myers Squibb Company, priority 2022, published 2026).
pIC50: −log10 of the molar value. Where a SMILES comes first, the peptide text is derived from it. Bridges are numbered along the chain shown (N, C = ends). [ ]: non-standard residue; d: D form. The star is where a group is joined. ξ: configuration not given here. Phe(3-CF3) = N[C@@H](Cc1cccc(C(F)(F)F)c1)C(=O)O; Phe(4-COOH) = N[C@@H](Cc1ccc(C(=O)O)cc1)C(=O)O; Bip = N[C@@H](Cc1ccc(-c2ccccc2)cc1)C(=O)O; Phe(3-CN) = N#Cc1cccc(C[C@H](N)C(=O)O)c1; Phe(3-Me) = Cc1cccc(C[C@H](N)C(=O)O)c1; Abu(3S-NH2) = C[C@H](N)[C@H](N)C(=O)O; NH(CH2)12COOH = O=C(O)CCCCCCCCCCCCN*; Val(3-OH) = CC(C)(O)[C@H](N)C(=O)O; 4Pal = N[C@@H](Cc1ccncc1)C(=O)O; Cha = N[C@@H](CC1CCCCC1)C(=O)O; Cit = NC(=O)NCCC[C@H](N)C(=O)O; Thr(3ξ) = CC(O)[C@H](N)C(=O)O; 4Abz = Nc1ccc(C(=O)O)cc1; Carboxymethyl = O=C(O)C*; NMeA = CN[C@@H](C)C(=O)O; Orn = NCCC[C@H](N)C(=O)O; Aun = NCCCCCCCCCCC(=O)O; Dab = NCC[C@H](N)C(=O)O; AEEA = NCCOCCOCC(=O)O

Each compound was assayed against T1, PD-1/PD-L1 interaction (PE-labeled human PD-L1-Ig binding to Jurkat cell line over-expressing human PD-1) (Homo sapiens, UniProt Q15116) (assay: Jurkat-PD-1 Cell Binding High-Content Screening Assay (CBA)). Settings: Jurkat-hPD-1 cells, PE-labeled PD-L1-Ig 20 nM final; read-out: Jurkat HPD1 PDL1 IC50.
T1 construct: expressed in transfected cells; host or cells: Jurkat
T1 sequence (Q15116 25-288): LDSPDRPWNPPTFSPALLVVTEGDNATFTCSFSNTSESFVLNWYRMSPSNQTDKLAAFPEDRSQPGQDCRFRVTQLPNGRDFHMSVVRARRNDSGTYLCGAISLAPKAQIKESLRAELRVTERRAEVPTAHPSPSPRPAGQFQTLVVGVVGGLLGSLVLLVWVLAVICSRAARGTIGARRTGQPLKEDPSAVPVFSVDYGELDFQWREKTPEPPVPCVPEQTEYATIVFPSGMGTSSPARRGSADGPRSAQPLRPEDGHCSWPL
Method in brief: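 Cells 8×10^3/well, DMEM + 10% FCS; cpd 2 h, 37 °C; PE–PD-L1-Ig 20 nM final, 1 h; PFA fix + Hoechst 33342, 3× dPBS wash; high-content imager.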

pIC50 | Structure (SMILES)
7.38 | Cc1cccc(C[C@@H]2NC(=O)[C@H](CC(=O)O)NC(=O)[C@H](Cc3ccc(OCC(=O)O)cc3)NC(=O)[C@H](C(C)O)NC(=O)CSC[C@@H](C(=O)NCCOCCOCC(=O)NCCCCCCCCCCC(=O)O)NC(=O)[C@H](C(C)O)NC(=O)[C@H](C(C)C)NC(=O)[C@H](CC3CCCCC3)NC(=O)[C@H](CCN)NC(=O)[C@@H](CC(C)C)NC(=O)[C@H](C)N(C)C(=O)[C@H](Cc3ccc(OCC(=O)O)cc3)NC(=O)[C@H](Cc3ccc(-c4ccccc4)cc3)NC(=O)[C@H](Cc3ccc(OCC(=O)O)cc3)NC2=O)c1 (stereo partly drawn) [Example 2341] ({CH2CO}-[Thr(3ξ)]Y(Carboxymethyl)D[Phe(3-Me)]Y(Carboxymethyl)[Bip]Y(Carboxymethyl)[NMeA][dL][Dab][Cha]V[Thr(3ξ)]C[AEEA][Aun]-OH; thioether N-14)
7.49 | Cc1cccc(C[C@@H]2NC(=O)[C@H](CC(=O)O)NC(=O)[C@H](Cc3ccc(OCC(=O)O)cc3)NC(=O)[C@H](CCCNC(=N)N)NC(=O)CSC[C@@H](C(=O)N[C@@H](CCN)C(=O)NCCCCCCCCCCC(=O)O)NC(=O)[C@H](C(C)O)NC(=O)[C@H](C(C)C)NC(=O)[C@H](CC3CCCCC3)NC(=O)[C@H](CCN)NC(=O)[C@@H](CC(C)C)NC(=O)[C@H](C)N(C)C(=O)[C@H](Cc3ccc(OCC(=O)O)cc3)NC(=O)[C@H](Cc3ccc(-c4ccccc4)cc3)NC(=O)[C@H](CCCNC(N)=O)NC2=O)c1 (stereo partly drawn) [Example 2349] ({CH2CO}-RY(Carboxymethyl)D[Phe(3-Me)][Cit][Bip]Y(Carboxymethyl)[NMeA][dL][Dab][Cha]V[Thr(3ξ)]C[Dab][Aun]-OH; thioether N-14)
8.01 | CC(C)C[C@@H]1NC(=O)[C@H](Cc2c[nH]c3ccccc23)NC(=O)[C@H](CC(=O)O)NC(=O)[C@H](Cc2ccc(C(=O)O)cc2)NC(=O)[C@H](Cc2ccc(OCC(=O)O)cc2)NC(=O)CSC[C@@H](C(=O)N[C@@H](CCN)C(=O)NCCOCCOCC(=O)NCCCCCCCCCCC(=O)O)NC(=O)[C@H](CO)NC(=O)[C@H](C(C)(C)O)NC(=O)[C@H](CC2CCCCC2)NC(=O)[C@H](CCN)NC(=O)[C@@H](CC(C)C)NC(=O)[C@H](C)N(C)C(=O)[C@H](C(C)C)NC(=O)[C@H](Cc2ccc(-c3ccccc3)cc2)NC1=O [Example 1411] ({CH2CO}-Y(Carboxymethyl)[Phe(4-COOH)]DWL[Bip]V[NMeA][dL][Dab][Cha][Val(3-OH)]SC[Dab][AEEA][Aun]-OH; thioether N-14)
7.74 | CC(C)C[C@H]1NC(=O)[C@H](C)N(C)C(=O)[C@H](CCC(N)=O)NC(=O)[C@H](Cc2ccc(-c3ccccc3)cc2)NC(=O)[C@H](Cc2ccc(C(=O)O)cc2)NC(=O)[C@H](Cc2cccc(C(F)(F)F)c2)NC(=O)[C@H](CC(=O)O)NC(=O)[C@H](Cc2ccc(OCC(=O)O)cc2)NC(=O)[C@H]([C@H](C)N)NC(=O)CSC[C@@H](C(=O)N[C@@H](CCN)C(=O)NCCCCCCCCCCCCC(=O)O)NC(=O)[C@H](CO)NC(=O)[C@H](C(C)(C)O)NC(=O)[C@H](CC2CCCCC2)NC(=O)[C@H](CCN)NC1=O [Example 1190] ({CH2CO}-[Abu(3S-NH2)]Y(Carboxymethyl)D[Phe(3-CF3)][Phe(4-COOH)][Bip]Q[NMeA][dL][Dab][Cha][Val(3-OH)]SC[Dab]-{NH(CH2)12COOH}; thioether N-14)
7.79 | Cc1cccc(C[C@@H]2NC(=O)[C@H](CC(=O)O)NC(=O)[C@H](Cc3ccc(OCC(=O)O)cc3)NC(=O)[C@H](CCCNC(=N)N)NC(=O)CSC[C@@H](C(=O)N[C@@H](CCN)C(=O)NCCCCCCCCCCC(=O)O)NC(=O)[C@H](CCCCN)NC(=O)[C@H](C(C)C)NC(=O)[C@H](CC3CCCCC3)NC(=O)[C@H](CCN)NC(=O)[C@@H](CC(C)C)NC(=O)[C@H](C)N(C)C(=O)[C@H](CCCNC(N)=O)NC(=O)[C@H](Cc3ccc(-c4ccccc4)cc3)NC(=O)[C@H](C(C)C)NC2=O)c1 [Example 2212] ({CH2CO}-RY(Carboxymethyl)D[Phe(3-Me)]V[Bip][Cit][NMeA][dL][Dab][Cha]VKC[Dab][Aun]-OH; thioether N-14)
7.98 | CC(C)C[C@@H]1NC(=O)[C@H](Cc2c[nH]c3ccccc23)NC(=O)[C@H](CC(=O)O)NC(=O)[C@H](Cc2ccc(O)cc2)NC(=O)[C@H](Cc2ccncc2)NC(=O)CSC[C@@H](C(=O)N[C@@H](CCCN)C(=O)NCCOCCOCC(=O)NCCCCCCCCCCC(=O)O)NC(=O)[C@H](CO)NC(=O)[C@H](C(C)C)NC(=O)[C@H](CC2CCCCC2)NC(=O)[C@H](CCN)NC(=O)[C@@H](CC(C)C)NC(=O)[C@H](C)N(C)C(=O)[C@H](C(C)C)NC(=O)[C@H](Cc2ccc(-c3ccccc3)cc2)NC1=O [Example 2147] ({CH2CO}-[4Pal]YDWL[Bip]V[NMeA][dL][Dab][Cha]VSC[Orn][AEEA][Aun]-OH; thioether N-14)
7.92 | Cc1cccc(C[C@@H]2NC(=O)[C@H](CC(=O)O)NC(=O)[C@H](Cc3ccc(OCC(=O)O)cc3)NC(=O)[C@H](CCCNC(=N)N)NC(=O)CSC[C@@H](C(=O)N[C@@H](CCN)C(=O)NCCCCCCCCCCC(=O)O)NC(=O)[C@H](CCC(N)=O)NC(=O)[C@H](C(C)C)NC(=O)[C@H](CC3CCCCC3)NC(=O)[C@H](CCN)NC(=O)[C@@H](CC(C)C)NC(=O)[C@H](C)N(C)C(=O)[C@H](Cc3ccc(O)cc3)NC(=O)[C@H](Cc3ccc(-c4ccccc4)cc3)NC(=O)[C@H](C(C)C)NC2=O)c1 [Example 2269] ({CH2CO}-RY(Carboxymethyl)D[Phe(3-Me)]V[Bip]Y[NMeA][dL][Dab][Cha]VQC[Dab][Aun]-OH; thioether N-14)
7.18 | CC(C)C[C@H]1NC(=O)[C@H](C)N(C)C(=O)[C@H](Cc2ccc(OCC(=O)O)cc2)NC(=O)[C@H](Cc2ccc(-c3ccccc3)cc2)NC(=O)[C@H](Cc2ccc(C(=O)O)cc2)NC(=O)[C@H](Cc2cccc(C#N)c2)NC(=O)[C@H](CC(=O)O)NC(=O)[C@H](Cc2ccc(OCC(=O)O)cc2)NC(=O)[C@H]([C@@H](C)O)NC(=O)CSC[C@@H](C(=O)N[C@@H](CCN)C(=O)NCCCCCCCCCCC(=O)O)NC(=O)[C@H]([C@@H](C)O)NC(=O)[C@H](C(C)C)NC(=O)[C@H](CC2CCCCC2)NC(=O)[C@H](CCN)NC1=O [Example 1233] ({CH2CO}-TY(Carboxymethyl)D[Phe(3-CN)][Phe(4-COOH)][Bip]Y(Carboxymethyl)[NMeA][dL][Dab][Cha]VTC[Dab][Aun]-OH; thioether N-14)

Structure (SMILES) | pIC50
CC(C)C[C@@H]1NC(=O)[C@H](Cc2c[nH]c3ccccc23)NC(=O)[C@H](CC(=O)O)NC(=O)[C@H](Cc2ccncc2)NC(=O)[C@H](Cc2ccc(OCC(=O)O)cc2)NC(=O)CSC[C@@H](C(=O)Nc2ccc(C(=O)NCCCCCCCCCCC(=O)O)cc2)NC(=O)[C@H](CCCN)NC(=O)[C@H](C(C)C)NC(=O)[C@H](CC2CCCCC2)NC(=O)[C@H](CCN)NC(=O)[C@@H](CC(C)C)NC(=O)[C@H](C)N(C)C(=O)[C@H](C(C)C)NC(=O)[C@H](Cc2ccc(-c3ccccc3)cc2)NC1=O [Example 1213] ({CH2CO}-Y(Carboxymethyl)[4Pal]DWL[Bip]V[NMeA][dL][Dab][Cha]V[Orn]C[4Abz][Aun]-OH; thioether N-14) | 6.56
